Structures can show the parent of a compound that is named as a salt. Where two headings read alike, the source gives them in different places.
Experiments:
[1] = Test Example 7 (1): acute toxicity test in mice; conditions: mouse, in vivo, read-out: 50% lethal dose (LD50)
Protocol: (1) Acute toxicity test of amosulalol hydrochloride with mice:
Investigation was conducted on the acute toxicity of amosulalol hydrochloride in mice through oral administration or intravenous administration.
Amosulalol was given to 7-weeks aged ICR mice by oral administration by use of an oral probe or through a tail vein.

choroidal blood flow = conditions: cited from earlier work
[2] = system: Normal Intraocular Pressure; assay: Test Example 2 (1): intraocular pressure reducing activity on normal intraocular pressure, pigmented rabbits; format: in vivo, pigmented rabbits (Dutch belted rabbits); conditions: 0.5% ophthalmic solution, treated eyes, 30 min and 1 hour after topical application
Protocol: Intraocular Pressure Reducing Activity of Amosulalol Hydrochloride on Normal Intraocular Pressure in Pigmented Rabbits Forty (40) male pigmented rabbits (Dutch belted rabbits) weighing about 2 kg, after having been confirmed to be free from ocular abnormalities, were bred in a breeding room maintained at a temperature of 24± 4° C. and at a relative humidity of 55± 15%, while they were fed solid food (Labo RG-RO, manufactured by Nihon Nohsan Kogyo K.K.) at a daily rate of 100 g per rabbit and allowed free access to tap water as drinking water. As a test drug, amosulalol hydrochloride was processed into 0.05%, 0.5% and 1.0% aqueous solutions which were used in the test, and 0.5% timolol maleate ophthalmic solution [Timoptol (registered trademark): Ban-yu Pharmaceutical Co.] and physiological saline were used as a positive control drug and a control substance, respectively. (1) Measurement of intraocular pressure: Forty (40) rabbits were divided into five groups. each consisting of 8 heads, and 50 μl of test drug as well as the control drug and physiological saline were applied topically to one eye each of the individual rabbits, with the other being left untreated. Before instillation and 0.5, 1, 2, 3, 4, 6 and 8 hours after topical application respectively, intraocular pressure for both eyes of each rabbit was measured using PTG. Time-course changes of intraocular pressure measurements taken with the eyes treated by instillation of each of the test drugs, control drug and physiological saline, are illustrated in FIGS. 2 (for treated eyes) and 3 (for non-treated eyes), respectively, with time (hour) after instillation taken as abscissa and intraocular pressure (mmHg) as ordinate; each value in mean ± S.E. (the number in each case is 8). The signs "a", "b", "c", "d" and "e" designate physiological saline, 0.05% aqueous solution of amosulalol hydrochloride, 0.5% aqueous solution of amosulalol hydrochloride, 1.0% aqueous solution of amosulalol hydrochloride and 0.5% solution of timolol maleate, respectively.

[3] = system: Normal Intraocular Pressure; assay: Test Example 1 (1): intraocular pressure reducing activity on normal intraocular pressure, pigmented rabbits; format: in vivo, pigmented rabbits (Dutch belted rabbits); conditions: 0.5% ophthalmic solution, 30 min and 1 hour after topical application
Protocol: Intraocular Pressure Reducing Activity of Amosulalol Hydrochloride on Normal Intraocular Pressure in Pigmented Rabbits Male pigmented rabbits (Dutch belted rabbits) weighing about 2 kg, after having been confirmed to be free from ocular abnormalities; were bred in a breeding room maintained at a temperature of 24± 4° C. and at a relative humidity of 55± 15%, while they were given solid food (Labo RG-RO manufactured by Nihon Nohsan Kogyo K.K.) at a daily rate of 100 g per rabbit and allowed free access to tap water as drinking water. As a test drug, amosulalol hydrochloride was processed into 0.05% (hereinafter, the term "%" is to be understood to designate "w/v %") and 1.0% aqueous solutions which were used in the test, and 0.5% timolol maleate ophthalmic solution [Timoptol (registered trademark): Ban-yu Pharmaceutical Co.] and physiological saline were used as a positive control drug and a control substance, respectively. (1) Measurement of intraocular pressure: Thirty two (32) rabbits were divided into four groups each consisting of 8 rabbits, and 50 μl of test drugs as well as the control drug and physiological saline were applied topically to one eye each of the individual rabbits, with the other being left untreated. Before instillation and 0.5, 1, 2, 3, 4, 6 and 8 hours after topical application,intraocular pressure for both of eyes of each rabbit was measured using a Pneumatonograph (manufactured by Alcon Co. Hereinafter referred to briefly as "PTG"). Shown in FIG. 1 are time-course changes of intraocular pressure taken with the eyes treated by instillation of each of the test drugs, control drug and physiological saline, with time (hour) after instillation taken as abscissa and intraocular pressure (mmHg as ordinate; each value in mean±S.E. (number of cases is 8). The signs "a", "b", "d" and "e" designate physiological saline, 0.05% aqueous solution of amosulalol hydrochloride, 1.0% aqueous solution of amosulalol hydrochloride, and 0.5% ophthalmic solution of timolol maleate, respectively.

Work on `COc1ccccc1OCCNCC(O)c1ccc(C)c(S(N)(=O)=O)c1` (stereo not shown) [Amosulalol, 5-[1-hydroxy-2-[2-(2-methoxyphenoxy)ethylamino]ethyl]-2-methylbenzenesulfonamide] yielded an LD50 ([1]; iv, intravenous (tail vein), female mice) of 134 mg/kg, an LD50 ([1]; iv, intravenous (tail vein), male mice) of 104 mg/kg and an LD50 ([1]; po, female mice) of 5700 mg/kg. It also gave an LD50 ([1]; po, male mice) of 6500 mg/kg.
For `CCCC(=O)N1CCCN(c2nc(N)c3cc(OC)c(OC)cc3n2)CC1` [bunazosin hydrochloride], the choroidal blood flow (choroidal blood flow) is listed as “can increase choroidal blood flow”.
For `CC(C)(C)NC[C@H](O)COc1nsnc1N1CCOCC1` [timolol maleate, reference compound], the “drop in intraocular pressure” value [2] was 2.4 mmHg and the “drop in intraocular pressure” value [3] was 2.4 mmHg.

Source: US5663205A, “Pharmaceutical composition for use in glaucoma treatment” (Senju Pharmaceutical Co. Ltd., priority 1992, dated 1997)
